# Where a SMILES comes first, the peptide text is derived from it. Where no end group is shown, it is not given here. [ ]: non-standard residue; d: D form.
# Molecular target: monoclonal antibody D32.39
# Assay: competition binding experiment with radiolabelled tracer peptide on D32.39-coated wells
# Settings: competition with 33P-labelled tracer LRRASLGGGRRQFKVVT 50 pM; wells coated with D32.39 0.1 μg/mL; 2 hr at 4° C.; IC50 taken as close to Kd
# Protocol: The binding affinities of various peptides for the monoclonal antibody D32.39 were measured in a competition binding experiment. […] The peptide mixtures were added to polystyrene wells coated with D32.39 (0.1 μg/mL). Samples were incubated 2 hr. at 4° C., the wells washed with PBS, and the radioactivity associated with each well was counted and used to generate a competitive binding curve. Under the conditions of the assay the IC50 should be close to the dissociation constant (Kd) for the peptide.
row,Kd,Compound
1,340 nM,CC(=O)N[C@@H](CCCCN)C(=O)N[C@@H](CCC(N)=O)C(=O)N[C@@H](Cc1ccccc1)C(=O)N[C@@H](CCCCN)C(=O)N[C@H](C(=O)N[C@H](C(=O)N[C@@H](CCCCN)C(=O)N[C@H](C(=O)O)[C@@H](C)O)[C@@H](C)O)C(C)C [KQFKVTKT] (Ac-KQFKVTKT-OH)
2,16 nM,CC(=O)N[C@@H](CCC(N)=O)C(=O)N[C@@H](C(=O)N[C@@H](CCCNC(=N)N)C(=O)N[C@@H](CCC(N)=O)C(=O)N[C@@H](Cc1ccccc1)C(=O)N[C@@H](CCCCN)C(=O)N[C@H](C(=O)N[C@H](C(=O)O)[C@@H](C)O)[C@@H](C)O)C(C)C [QvRQFKTT] (Ac-Q[dV]RQFKTT-OH)
3,0.29 nM,CC(=O)N[C@H](C(=O)N[C@@H](Cc1ccccc1)C(=O)N[C@@H](CCCNC(=N)N)C(=O)N[C@@H](CCC(N)=O)C(=O)N[C@@H](Cc1ccccc1)C(=O)N[C@@H](CCCCN)C(=O)N[C@H](C(=O)N[C@H](C(=O)O)[C@@H](C)O)C(C)C)[C@@H](C)O [TFRQFKVT] (Ac-TFRQFKVT-OH)
4,1400 nM,CC(=O)N[C@H](C(=O)N[C@@H](Cc1ccccc1)C(=O)N[C@@H](CCCNC(=N)N)C(=O)N[C@@H](C(=O)N[C@@H](Cc1ccccc1)C(=O)N[C@@H](CCCNC(=N)N)C(=O)N[C@H](C(=O)N[C@H](C(=O)O)[C@@H](C)O)C(C)C)C(C)C)[C@@H](C)O [TFRvFRVT] (Ac-TFR[dV]FRVT-OH)
5,560 nM,CC(=O)N[C@H](C(=O)N[C@@H](CCC(N)=O)C(=O)N[C@@H](Cc1ccccc1)C(=O)N[C@@H](CCCCN)C(=O)N[C@H](C(=O)N[C@H](C(=O)N[C@@H](CCCCN)C(=O)N[C@H](C(=O)O)[C@@H](C)O)[C@@H](C)O)C(C)C)[C@@H](C)O [TQFKVTKT] (Ac-TQFKVTKT-OH)
6,410 nM,KQFKVTQT
7,370 nM,QQFKVVQT

row,Compound,Kd
1,RQFRTVQT,76 nM
2,TTRRFRVT,4.3 nM
3,TVRQFKTT,8.8 nM

# Molecular target: anti-dynorphin B mAb D32.39
# Assay: not given
# Settings: soluble hepta-peptide; see Cull et al.; cited from earlier work
row,Compound,Kd
1,"RQFKVVT (RQFKVVT-NH2) [H-Arg-Gln-Phe-Lys-Val-Val-Thr-NH2, C-terminal seven amino acid fragment of the opioid peptide dynorphin B; positive control]",~1 nM

# Test system: anti-dynorphin B mAb D32.39
# Assay: flow cytometry (FACS) staining of beads with mAb D32.39 and phycoerythrin-conjugated second antibody
# Type: binding, mouse
# Settings: 10 μm beads carrying peptide and 69-mer oligonucleotide tag; blank beads unstained
# Protocol: The binding of mAb D32.39 to control beads and to the bead library was analyzed by flow cytometry. […] By contrast, only a small fraction of the encoded library bound D32.39. Analysis of 10^5 events indicated ~2% of the library stained above background levels. […] The amplification reactions contained dUTP and uracil DNA glycosidase to prevent carryover contamination with soluble product from previous amplifications (see Longo et al., 1990, Gene 93: 125-128, incorporated herein by reference).
# A portion of a library (typically 0.5-2 mg of beads) was suspended in blocking buffer (PBS, 1% BSA, 0.05% Tween-20) and incubated at room temperature for 1 hr. The beads were pelleted by centrifugation and resuspended in a solution of mAb D32.39 ([…] in blocking buffer). The suspension was incubated on ice for 30 min., pelleted by centrifugation, and washed with blocking buffer. The beads were then suspended in a solution of phycoerythrin-conjugated goat anti-mouse antibody (Molecular Probes) for 20 min. on ice. The beads were washed in blocking buffer and diluted in PBS for delivery into the fluorescence activated cell sorting (FACS) instrument (Becton Dickinson FACStar Plus). Beads which had bound the mAb D32.39 were identified by their acquired fluorescence. Individual beads from both the most brightly stained 0.17% of the library and from the region having the lowest fluorescence (ca. 98%) were sorted into PCR microfuge vials. Specific binding of D32.39 to the beads was blocked by preincubation of the mAb with the soluble peptide Ac-RQFKVVT-OH (SEQ ID NO:2) at a final concentration of 10 μM.
row,Compound,staining by mAb D32.39 of beads carrying the sequence
1,"RQFKVVT (RQFKVVT-NH2) [H-Arg-Gln-Phe-Lys-Val-Val-Thr-NH2, C-terminal seven amino acid fragment of the opioid peptide dynorphin B; positive control]",strongly stained

# Same assay, conditions: flow cytometry; soluble peptide at final concentration 10 μM
row,Compound,blocking of D32.39 binding to library beads by preincubating the mAb with soluble peptide
1,CC(=O)N[C@@H](CCCNC(=N)N)C(=O)N[C@@H](CCC(N)=O)C(=O)N[C@@H](Cc1ccccc1)C(=O)N[C@@H](CCCCN)C(=O)N[C@H](C(=O)N[C@H](C(=O)N[C@H](C(=O)O)[C@@H](C)O)C(C)C)C(C)C [Ac-RQFKVVT-OH] (Ac-RQFKVVT-OH),blocked
2,"RQFKVVT (RQFKVVT-NH2) [H-Arg-Gln-Phe-Lys-Val-Val-Thr-NH2, C-terminal seven amino acid fragment of the opioid peptide dynorphin B; positive control]",completely blocked

# From patent US5639603A, “Synthesizing and screening molecular diversity” (Affymax Technologies N.V., priority 1993, dated 1997)
